Reference: publication PMC9032718, “Eltrombopag as an Allosteric Inhibitor of the METTL3-14 Complex Affecting the m^6A Methylation of RNA in Acute Myeloid Leukemia Cells” (Pharmaceuticals, 2022)

Experiments:
[1] = molecular target: T1, METTL3-14 complex (Homo sapiens, UniProt Q86U44); test: METTL3-14 enzyme-based bioluminescence assay (screening assay); format: biochemical; conditions: for inhibition at 60 µM: read-out: % inhibition of METTL3-14 at 60 μM, 60 μM compound; for Km: Michaelis-Menten, Figure S1, read-out: Km of METTL3-14 substrates
T1 construct: genes encoding the full-length and MTase domain of human METTL3; METTL3-14 FL: full length of METTL3-14; 10x His (thrombin-cleavable) (cleaved yes); made in house; host or cells: Trichoplusia ni (Hi5) cells co-infected with two baculoviruses (virus made in Sf9)
Experimental: An enzymatic bioluminescence assay was established to identify the METTL3-14 inhibitor through screening. […] METTL3-14 activity was assessed by measuring the luminescence using a Victor multilabel reader (PerkinElmer, Waltham, MA, USA). The IC50 values were calculated by a nonlinear regression analysis using OriginPro 9.1 software (OriginLab).
To confirm the mechanism of action of eltrombopag in the METTL3-14 complex, 30 nM METTL3-14 and serially diluted eltrombopag were reacted with various concentrations of SAM or RNA substrate and saturating concentrations of the other substrate (3 μM SAM or 2 μM RNA substrate) for 20 min. To evaluate the inhibitory activity in a single form of METTL3 and METTL14, 1 μM of METTL3 and 300 nM of METTL14 were incubated with 1 μM of SAM, 500 nM of RNA substrates, and serially diluted eltrombopag for 5 h. To measure the inhibitory activity in the truncated form of the METTL3-14 complex, 1 μM of the truncated METTL3-14 complex was reacted with 1 μM of SAM, 500 nM of RNA substrates, and serially diluted eltrombopag for 5 h.

[2] = tested on: MOLM-13 cells; test: Anti-proliferative assay (EZ-cytox), MOLM-13; format: cell-based; conditions: Homo sapiens
Experimental: The MOLM-13, MOLM-14, HL60, MV4-11, and THP-1 cells were seeded in white 96-well clear bottomed plates with 100 μL of medium (5000 cells/well). The plated cells were treated with serially diluted compounds and incubated for 72 h at 37 °C. After incubation, 10 μL of EZ-cytox kit reagent from the EZ-cytox cell viability assay kit (DaeiLab, Seoul, Korea) was added to each well and then incubated for 3 h at 37 °C. The absorbance of metabolically active cells was measured at a wavelength of 450 nm using a Victor multilabel reader (PerkinElmer). The GI50 values were calculated by nonlinear regression analysis using OriginPro 9.1 software (OriginLab).

[3] = molecular target: T2, DOT1L (Homo sapiens, UniProt Q8TEK3); test: Methyltransferase selectivity panel (MT HotSpot radioisotope assay), DOT1L; format: biochemical
T2 construct: purchased Reaction Biology (Malvern, PA, USA), contract assay
Experimental: (§1) The selectivity profile of eltrombopag was investigated by testing the level of inhibition in a methyltransferase panel. The inhibition of 7 […] methyltransferase was tested at Reaction Biology (Malvern, PA, USA) using a gold standard radioisotope-based MT assay (MT HotSpot^TM) with 10 μM of eltrombopag in duplicate.

[4] = molecular target: T3, PRDM9 (Homo sapiens, UniProt Q9NQV7); test: Methyltransferase selectivity panel (MT HotSpot radioisotope assay), PRDM9; format: biochemical; conditions: positive control
T3 construct: purchased Reaction Biology (Malvern, PA, USA), contract assay
Experimental: as §1

[5] = molecular target: T4, SMYD3 (Homo sapiens, UniProt Q9H7B4); test: Methyltransferase selectivity panel (MT HotSpot radioisotope assay), SMYD3; format: biochemical
T4 construct: purchased Reaction Biology (Malvern, PA, USA), contract assay
T4 sequence (Q9H7B4 1-428): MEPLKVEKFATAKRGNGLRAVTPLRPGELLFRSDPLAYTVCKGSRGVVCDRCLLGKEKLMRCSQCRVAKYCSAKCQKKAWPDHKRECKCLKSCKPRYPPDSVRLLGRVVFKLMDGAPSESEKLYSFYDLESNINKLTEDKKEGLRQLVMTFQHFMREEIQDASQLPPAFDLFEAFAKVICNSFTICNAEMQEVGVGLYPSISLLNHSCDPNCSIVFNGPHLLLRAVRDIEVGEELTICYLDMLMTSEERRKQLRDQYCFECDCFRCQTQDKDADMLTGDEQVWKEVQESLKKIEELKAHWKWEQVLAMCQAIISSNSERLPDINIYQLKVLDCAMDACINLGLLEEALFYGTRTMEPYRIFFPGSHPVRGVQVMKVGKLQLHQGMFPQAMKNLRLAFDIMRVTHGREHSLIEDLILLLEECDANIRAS
Experimental: as §1

[6] = molecular target: T5, SETD2 (Homo sapiens, UniProt Q9BYW2); test: Methyltransferase selectivity panel (MT HotSpot radioisotope assay), SETD2; format: biochemical; conditions: positive control
T5 construct: purchased Reaction Biology (Malvern, PA, USA), contract assay
Experimental: as §1

[7] = molecular target: T6, MLL4 complex (Homo sapiens, UniProt Q9UMN6); test: Methyltransferase selectivity panel (MT HotSpot radioisotope assay), MLL4 complex; format: biochemical; conditions: positive control
T6 construct: purchased Reaction Biology (Malvern, PA, USA), contract assay
Experimental: as §1

[8] = tested on: MOLM-13 cells; test: Combinatorial analysis of AML drugs with eltrombopag (EZ-cytox, Synergyfinder); format: cell-based; conditions: Homo sapiens, MOLM-13, 72 h, eltrombopag 0 nM; for inhibition at 0.00167 µM: AML drug alone 1.67 nM; for inhibition at 0.005 µM: AML drug alone 5 nM; for inhibition at 0.015 µM: AML drug alone 15 nM; for inhibition at 0.045 µM: AML drug alone 45 nM
Experimental: The MOLM-13 cells were seeded in white 96-well clear bottomed plates with 50 μL of medium (5000 cells/well). The plated cells were treated with serially diluted eltrombopag and current AML drugs, including venetoclax, cytarabine, gilteritinib, and sorafenib, to a final volume of 100 μL and incubated for 72 h at 37 °C. After incubation, 10 μL of EZ-cytox kit reagent from the EZ-cytox cell viability assay kit (DaeiLab) was added to each well and then incubated for 3 h at 37 °C. The absorbance of metabolically active cells was measured at a wavelength of 450 nm using a Victor multilabel reader (PerkinElmer). The synergy scores of each combination were quantified by the HAS model, ZIP model, Loewe additivity model, and Bliss independence models using Synergyfinder software. Positive or negative synergy scores obtained through these models represent synergy and antagonism, respectively.

[9] = tested on: m^6A/A on poly-A+-enriched mRNA of MOLM-13 cells; parameters: method as in PMID 34237194; conditions: cited from earlier work
[10] = tested on: m^6A methylation of MOLM-13 transcriptome; parameters: method as in PMID 33902106; conditions: cited from earlier work

T1 sequence (Q86U44 whole entry, the tested form may be a part): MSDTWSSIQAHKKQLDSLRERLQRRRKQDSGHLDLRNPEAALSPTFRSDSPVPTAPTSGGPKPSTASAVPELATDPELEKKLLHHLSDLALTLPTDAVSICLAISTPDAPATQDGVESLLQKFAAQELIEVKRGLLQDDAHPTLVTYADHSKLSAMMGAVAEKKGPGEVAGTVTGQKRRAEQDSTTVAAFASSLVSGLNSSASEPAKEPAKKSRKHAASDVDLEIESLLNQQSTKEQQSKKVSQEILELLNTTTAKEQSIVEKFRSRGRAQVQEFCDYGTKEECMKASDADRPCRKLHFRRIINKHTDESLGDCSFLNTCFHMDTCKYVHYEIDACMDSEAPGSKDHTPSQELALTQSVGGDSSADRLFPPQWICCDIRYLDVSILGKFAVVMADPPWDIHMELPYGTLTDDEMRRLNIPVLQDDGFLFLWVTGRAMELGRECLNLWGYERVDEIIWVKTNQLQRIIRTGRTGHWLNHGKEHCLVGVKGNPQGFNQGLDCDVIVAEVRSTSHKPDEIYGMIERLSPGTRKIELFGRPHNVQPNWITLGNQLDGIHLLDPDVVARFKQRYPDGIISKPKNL
T1 sequence (Q9HCE5 whole entry partner, the tested form may be a part): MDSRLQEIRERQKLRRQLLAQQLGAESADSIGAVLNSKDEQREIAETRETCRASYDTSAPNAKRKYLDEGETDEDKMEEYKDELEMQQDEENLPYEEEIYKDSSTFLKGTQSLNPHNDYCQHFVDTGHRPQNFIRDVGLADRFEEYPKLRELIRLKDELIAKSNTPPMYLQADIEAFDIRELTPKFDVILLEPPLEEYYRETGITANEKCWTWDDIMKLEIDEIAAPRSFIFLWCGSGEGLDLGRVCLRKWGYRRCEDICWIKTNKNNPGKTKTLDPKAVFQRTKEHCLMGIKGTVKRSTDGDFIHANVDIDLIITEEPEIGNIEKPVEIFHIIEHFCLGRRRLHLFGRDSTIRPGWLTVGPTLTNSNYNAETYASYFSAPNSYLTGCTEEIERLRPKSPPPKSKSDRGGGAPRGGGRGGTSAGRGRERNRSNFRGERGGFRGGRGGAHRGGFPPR
T3 sequence (Q9NQV7 whole entry): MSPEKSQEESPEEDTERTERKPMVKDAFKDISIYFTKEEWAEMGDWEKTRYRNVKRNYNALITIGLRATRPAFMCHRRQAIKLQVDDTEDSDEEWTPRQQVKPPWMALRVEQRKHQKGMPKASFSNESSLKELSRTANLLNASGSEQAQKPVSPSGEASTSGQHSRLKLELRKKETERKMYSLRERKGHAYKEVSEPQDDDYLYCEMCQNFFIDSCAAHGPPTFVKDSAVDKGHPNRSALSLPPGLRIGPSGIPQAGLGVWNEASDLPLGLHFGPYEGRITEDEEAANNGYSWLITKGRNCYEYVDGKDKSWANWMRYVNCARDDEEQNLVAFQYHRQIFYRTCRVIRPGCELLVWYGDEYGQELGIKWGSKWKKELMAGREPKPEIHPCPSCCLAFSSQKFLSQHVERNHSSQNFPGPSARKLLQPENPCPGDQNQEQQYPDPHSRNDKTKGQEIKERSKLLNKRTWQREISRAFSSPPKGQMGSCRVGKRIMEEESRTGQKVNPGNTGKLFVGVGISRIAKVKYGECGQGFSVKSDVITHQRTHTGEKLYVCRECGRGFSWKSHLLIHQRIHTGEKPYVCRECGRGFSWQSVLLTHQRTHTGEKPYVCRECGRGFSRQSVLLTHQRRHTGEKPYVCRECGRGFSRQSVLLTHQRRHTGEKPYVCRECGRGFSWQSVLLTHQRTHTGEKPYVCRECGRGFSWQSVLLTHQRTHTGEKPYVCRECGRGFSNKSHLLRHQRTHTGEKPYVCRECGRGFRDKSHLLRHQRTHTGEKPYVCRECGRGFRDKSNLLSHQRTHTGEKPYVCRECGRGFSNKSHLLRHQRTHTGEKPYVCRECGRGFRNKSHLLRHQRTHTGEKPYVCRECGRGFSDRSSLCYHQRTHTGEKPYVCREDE
T2 sequence (Q8TEK3 whole entry): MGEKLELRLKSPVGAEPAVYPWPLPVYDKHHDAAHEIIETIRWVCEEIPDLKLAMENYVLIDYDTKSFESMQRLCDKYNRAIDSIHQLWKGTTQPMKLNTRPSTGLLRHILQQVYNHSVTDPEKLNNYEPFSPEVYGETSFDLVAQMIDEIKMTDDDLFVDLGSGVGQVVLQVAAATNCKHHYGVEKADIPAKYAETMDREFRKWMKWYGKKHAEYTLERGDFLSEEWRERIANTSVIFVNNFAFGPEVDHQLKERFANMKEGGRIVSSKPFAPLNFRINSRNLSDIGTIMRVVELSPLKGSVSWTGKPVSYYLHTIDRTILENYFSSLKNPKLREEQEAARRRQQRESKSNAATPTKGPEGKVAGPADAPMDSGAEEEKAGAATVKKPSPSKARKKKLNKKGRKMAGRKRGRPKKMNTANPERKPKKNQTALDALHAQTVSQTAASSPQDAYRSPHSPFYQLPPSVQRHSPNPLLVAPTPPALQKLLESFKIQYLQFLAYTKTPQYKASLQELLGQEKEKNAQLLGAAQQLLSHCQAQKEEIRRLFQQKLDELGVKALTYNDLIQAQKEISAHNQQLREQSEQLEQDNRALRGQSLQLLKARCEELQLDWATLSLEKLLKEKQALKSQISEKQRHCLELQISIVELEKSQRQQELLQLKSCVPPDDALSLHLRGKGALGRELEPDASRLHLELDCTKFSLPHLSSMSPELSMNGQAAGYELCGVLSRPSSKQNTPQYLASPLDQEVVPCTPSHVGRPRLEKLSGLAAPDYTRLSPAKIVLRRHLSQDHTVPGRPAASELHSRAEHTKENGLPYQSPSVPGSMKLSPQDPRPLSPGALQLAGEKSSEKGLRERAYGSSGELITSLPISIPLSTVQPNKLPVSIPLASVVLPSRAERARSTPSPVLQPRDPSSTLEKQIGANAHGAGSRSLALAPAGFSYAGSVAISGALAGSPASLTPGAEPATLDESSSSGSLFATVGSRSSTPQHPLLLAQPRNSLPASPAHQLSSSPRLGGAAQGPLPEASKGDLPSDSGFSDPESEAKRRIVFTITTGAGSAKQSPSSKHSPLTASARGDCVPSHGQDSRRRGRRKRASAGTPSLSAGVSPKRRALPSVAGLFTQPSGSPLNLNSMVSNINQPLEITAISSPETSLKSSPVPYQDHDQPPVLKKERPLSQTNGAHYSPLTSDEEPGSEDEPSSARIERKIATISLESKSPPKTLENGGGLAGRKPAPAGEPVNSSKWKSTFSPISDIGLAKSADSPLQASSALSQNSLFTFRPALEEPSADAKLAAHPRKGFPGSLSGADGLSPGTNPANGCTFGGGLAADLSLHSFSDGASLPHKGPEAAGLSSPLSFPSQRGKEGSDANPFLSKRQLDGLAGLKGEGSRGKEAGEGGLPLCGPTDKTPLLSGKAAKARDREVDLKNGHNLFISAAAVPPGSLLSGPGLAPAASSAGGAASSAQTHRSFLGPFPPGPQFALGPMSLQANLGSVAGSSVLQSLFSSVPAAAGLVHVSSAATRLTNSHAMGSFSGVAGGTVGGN

In the case of `COC(=O)c1cccc(-c2cccc(N/N=C3\C(=O)N(c4ccc(C)c(C)c4)N=C3C)c2O)c1` [Compound 14b], the inhibition at 60 µM [1] is reported as 23.7%.

With `CC1=NN(c2ccc(C)c(C)c2)C(=O)/C1=N\Nc1cccc(-c2cccc(C(=O)O)c2)c1` [Compound 14d] the IC50 ([1]; full length METTL3-14 30 nM, SAM 300 nM, RNA substrate 300 nM, 1 h, read-out: IC50, METTL3-14 inhibition, bioluminescence enzyme based assay) was 15.3 µM and the “fold decrease of METTL3-14 inhibitory activity versus eltrombopag” value ([1]; relative to eltrombopag) was 4 fold.

In the case of `CCc1nc(C(N)=O)c(Nc2ccc(N3CCC(N4CCN(C)CC4)CC3)c(OC)c2)nc1NC1CCOCC1` [Gilteritinib], the GI50 ([2]; MOLM-13, 72 h, positive control, Figure S3) is reported as 0.0166 µM.

`C[S+](CC[C@H](N)C(=O)O)C[C@H]1O[C@@H](n2cnc3c(N)ncnc32)[C@H](O)[C@@H]1O` (stereo partly drawn) [SAM, S-(5′-adenosyl)-L-methionine] gave a Km [1] of 0.0986 µM.

For `CN1C(=O)[C@@]23C[C@]4([C@]56C[C@@]78SS[C@@](CO)(C(=O)N7[C@H]5Nc5ccccc56)N(C)C8=O)c5ccccc5N[C@@H]4N2C(=O)[C@]1(CO)SS3` [Chaetocin], the IC50 [3] was 0.217 µM.

With `Nc1ncnc2c1ncn2[C@@H]1O[C@H](CSCC[C@H](N)C(=O)O)[C@@H](O)[C@H]1O` [SAH, S-(5′-adenosyl)-L-homocysteine] the IC50 [4] was 4.16 µM, the IC50 [5] was 35.3 µM and the IC50 [6] was 10.8 µM. It also gave an IC50 [7] of 5.09 µM.

`CC1(C)CCC(CN2CCN(c3ccc(C(=O)NS(=O)(=O)c4ccc(NCC5CCOCC5)c([N+](=O)[O-])c4)c(Oc4cnc5[nH]ccc5c4)c3)CC2)=C(c2ccc(Cl)cc2)C1` [Venetoclax] gave an inhibition at 0.00167 µM [8] of 12.8 ± 3.69%, an inhibition at 0.005 µM [8] of 29.2 ± 0.39% and an inhibition at 0.015 µM [8] of 54.5 ± 3.76%. It also gave an inhibition at 0.045 µM [8] of 77 ± 0.92%.

For `CC1(C)CCN(Cc2ccc(C(=O)NC[C@]3(O)CCCN(c4cc(NCc5ccccc5)ncn4)C3)c(O)c2)CC1` [UZH1a], the “maximum m^6A inhibition, previously reported” value [9] is given as 60–70%.

`CC1=NN(c2ccc(C)c(C)c2)C(=O)/C1=N\Nc1cccc(-c2ccccc2)c1O` [Compound 14a] gave an inhibition at 60 µM [1] of 23.3%.

“RNA: RNA substrate 5′-ACGAGUCCUGGACUGAAACGGACUUGU-3′ (RNA, backbone not given here)” showed a Km [1] of 0.0705 µM.

For `Nc1ncnc2c1ncn2[C@@H]1O[C@H](C[C@@H](N)CC[C@H](N)C(=O)O)[C@@H](O)[C@H]1O` [Sinefungin, sinefungin], the GI50 ([2]; MOLM-13, 72 h) was 24.8 ± 1.2 µM.

In the case of STM2457, the “share of hypermethylation, previously reported” value [10] is listed as “about 30%”.

For `Nc1ccn([C@@H]2O[C@H](CO)[C@@H](O)[C@@H]2O)c(=O)n1` [Cytarabine], the inhibition at 0.00167 µM [8] was 2.2 ± 3.1%, the inhibition at 0.005 µM [8] was 20.7 ± 4.33% and the inhibition at 0.015 µM [8] was 48.3 ± 1.93%. It also gave an inhibition at 0.045 µM [8] of 75.7 ± 1.35%.
